Test results as given in patent US12448352B2, “Beta adrenergic agonist and methods of using the same” (Curasen Therapeutics, Inc., priority 2019, dated 2025).

Assays:
[1] = Rat pharmacokinetic study (plasma); assay type: in vivo, male SD rats
Experimental: (§1) The rat pharmacokinetics studies of exemplary compounds 03-3, 03-5, and 03-115 were conducted with male SD rats. These rats were typically about 6-8 weeks old, weighing 200 g to 300 g. Animals were fasted overnight and free access to food 4 hours after dosing. A required volume of vehicle was added to reach the target concentration of the test article and vehicle component to prepare for the dosing. The dosing vehicle was PEG400 or 30% PEG400 in saline for IV, or 0.5% methylcellulose in water for PO. For IV dosing, the animals were administered intravenously via tail vein. For PO dosing, the animals were administered via oral gavage. After dosing, blood sample was collected (˜0.2 mL per time point) through jugular vein or heart puncture. Blood of each sample was transferred into plastic micro centrifuge tubes containing EDTA-K2. Collection tubes with blood samples and anticoagulant were inverted several times for proper mixing of the tube contents and then placed on wet ice. The blood samples were centrifuged at 2000 g for 5 minutes at 4° C. to obtain plasma which was stored in a freezer at −75±15° C. prior to analysis. Samples were analyzed using LC-MS/MS. WinNonlin were used for pharmacokinetic calculations.

[2] = Monkey pharmacokinetic study; assay type: in vivo, male Non-Naïve Cynomolgus Monkeys; details: PO 0.3 mg/kg
Experimental: as §1
Monkey pharmacokinetics studies of exemplary compounds 03-3, 03-5, and 03-115 were conducted substantially similarly to the rat pharmacokinetic studies, instead using male Non-Naïve Cynomolgus Monkeys. Animals for PO studies were food fasted overnight prior to dosing and were fed approximately 2 hours after dosing. Animals for IV studies had free access to food and water. Blood samples were collected through venipuncture of peripheral veins except the dosing vein.

[3] = Rat CNS exposure (plasma, CSF, brain); assay type: in vivo, male SD rats; details: SC 1 mg/kg, 1.00 h
Experimental: as §1, with “These” for “The rat pharmacokinetics studies of exemplary compounds 03-3, 03-5, and 03-115 were conducted with male SD rats. These”
For CSF sampling, after anesthesia, the foramen magnum was exposed, and a syringe was used with a venoclysis needle to sample the CSF. The CSF samples were stored in polypropylene tubes, then stored in a freezer at −75±15° C. prior to analysis.
For brain sampling, the rats were fully exsanguinated by using a risen of carbon dioxide prior to brain collection. Brain samples were then collected at adopted time point, quick frozen and kept at −75±15° C. All brain samples were weighted and homogenated with PBS by brain weight (g) to PBS volume (mL) ratio 1:3 before analysis. The actual concentration is the detected value multiplied by the dilution factor.

`Cc1ncccc1[C@@H](O)CNC(C)(C)C` [Compound 03-115] gave an AUCInf ([1]; IV 1 mg/kg) of 164 ng·h/mL, a C0 ([1]; IV 1 mg/kg) of 512 ng/mL and a T1/2 ([1]; IV 1 mg/kg) of 0.36 h. The Vss_obs ([1]; IV 1 mg/kg) was 2.4 L/kg, the AUCInf ([1]; PO 5 mg/kg) was 192 ng·h/mL and the Cmax ([1]; PO 5 mg/kg) was 174 ng/mL. It also gave an MRTInf_obs ([1]; PO 5 mg/kg) of 1.06 h, a T1/2 ([1]; PO 5 mg/kg) of 1.61 h and a Tmax ([1]; PO 5 mg/kg) of 0.25 h. For the same compound, the AUCInf [2] was 261 ng·h/mL, the Cmax [2] was 67 ng/mL and the MRTInf_obs [2] was 3.46 h. For the same compound, the Tmax [2] was 1.17 h, the “Concentration, Brain” value [3] was 142 ng/g and the “Concentration, CSF” value [3] was 56.2 ng/mL. For the same compound, the “Concentration, Plasma” value [3] was 149 ng/mL.
